Literature values in US7198802B2, “Tablet obtained by direct compression comprising 4-amino-1-hydroxybutylidene-1,1-bisphosphonic acid as active ingredient” (Zentiva A.S., priority 2000, dated 2007).

Conditions: atmospheric relative humidity

Row | Structure (SMILES) | relative humidity at which moisture / water content rises
1 | OC[C@H]1O[C@@H](O[C@H]2[C@H](O)[C@@H](O)C(O)O[C@@H]2CO)[C@H](O)[C@@H](O)[C@H]1O (some centres unmarked) [Lactose] | above 90%
2 | OC[C@@H](O)[C@@H](O)[C@H](O)[C@H](O)CO [mannitol, Mannitol] | about 98%
